The source of these data is PMC12123458, “Unraveling Small Molecule-Mediated Sirtuin 3 Activation at a Distinct Binding Site for Cardioprotective Therapies” (ACS Central Science, 2025).

Assay [1] relates to H9c2 cells. Nature of the assay: Dox-induced cardiotoxicity model in H9c2 cells, MTT cell viability. The format is cell-based. The note with it: for viability at 10 µM: Rattus norvegicus, H9c2, 10 µM pretreatment 24 h, then 1 µM Dox 24 h, MTT, Model (Dox) = Dox alone, read-out: Cardiomyocyte survival rate at 10 uM (%). How it is done: H9c2 cardiomyocytes were cultured in high-glucose DMEM supplemented with 10% FBS and 1% penicillin/streptomycin under a 5% CO2 atmosphere at 37 °C. Cells were seeded at 5 × 10^4 cells/mL in 96-well plates and treated with 1 μM Dox for 24 h. After Dox treatment, cell viability was quantified via MTT assay; 3-(4,5-dimethythiazol-2-yl)-2,5-diphenyltetrazolium bromide (MTT, 5 mg/mL) was applied for 4 h, followed by DMSO dissolution of formazan crystals. Additionally, cells were pretreated with 10 μM SKLB-11A for 24 h prior to 1 μM Dox exposure, and viability was similarly assessed using MTT.

The target in assay [2] is T1, SIRT3 (Homo sapiens, UniProt Q9NTG7).
T1 construct: purchased Enzo Life Sciences BML-AK557-0001
T1 sequence (Q9NTG7 1-399): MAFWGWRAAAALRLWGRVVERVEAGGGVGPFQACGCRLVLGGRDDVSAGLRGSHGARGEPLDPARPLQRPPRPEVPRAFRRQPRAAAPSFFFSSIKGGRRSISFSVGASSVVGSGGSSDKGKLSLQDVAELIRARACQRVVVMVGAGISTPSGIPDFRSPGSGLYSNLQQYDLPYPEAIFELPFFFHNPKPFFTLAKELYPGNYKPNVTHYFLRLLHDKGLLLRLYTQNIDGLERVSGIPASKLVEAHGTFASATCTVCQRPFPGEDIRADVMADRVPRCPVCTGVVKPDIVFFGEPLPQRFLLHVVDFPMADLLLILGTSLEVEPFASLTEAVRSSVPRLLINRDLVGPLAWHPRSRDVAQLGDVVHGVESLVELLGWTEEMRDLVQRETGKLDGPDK
Nature of the assay: Fluor de Lys (FDL) fluorimetric SIRT3 deacetylase activity assay. Particulars: 100 µM, FDL deacetylation assay, compared to the control group, mean ± SD; for activity at 100 µM: 0.5 h, read-out: % effect @ 100 µM of SIRT3. Type of assay: biochemical. The protocol:
The SIRT3 activity was assessed using the Enzo Life Sciences kit (BML-AK557-0001) per the protocol provided. A 10 μM fluoro-acetylated p53 peptide and 500 μM NAD^+ were added to SIRT3 assay buffer, incubated with test compounds and 0.5 μg recombinant SIRT3 at 37 °C for 30 min. In the mass spectrometry (MS) assay, 5 μM hSirt3 was reacted with 0.25 mM peptide and 1.25 mM NAD^+, with or without 10 μM SKLB-11A in 2% DMSO, at 37 °C. Controls included 2% DMSO without SKLB-11A. The reaction was halted at defined intervals using 5 mM nicotinamide, and the mixture then underwent filtration and subjected to nano LC-MS/MS analysis. Acetylated Peptide: MnSOD-K122 ([…]-Ac).

As for `COc1cccc2c1C(=O)c1c(O)c3c(c(O)c1C2=O)C[C@@](O)(C(=O)CO)C[C@@H]3O[C@H]1C[C@H](N)[C@H](O)[C@H](C)O1` [Dox, doxorubicin, reference compound], the viability at 10 µM in assay [1] is 61.93 ± 0.51%.
As for `COc1cc(-n2c(=S)[nH]c3ccccc3c2=O)c(Cl)cc1Cl` [Mdivi-1, reference compound], the “effect of co-treatment on the cardioprotective efficacy of SKLB-11A” value in assay [1] (Dox-treated H9c2 cells, cell viability) is “attenuated the cardioprotective effects of SKLB-11A”.
On to `COc1ccc(Cn2c(N)c(C#N)c3nc4ccccc4nc32)cc1` [SKLB-4A, 2-amino-1-(4-methoxybenzyl)-1H-pyrrolo[2,3-b]quinoxaline-3-carbonitrile], for which the activity at 100 µM in assay [2] was determined as 118.2 ± 0.79%. In addition, the viability at 10 µM in assay [1] is 65.3 ± 4.54%.
For `N#Cc1c(N)n(Cc2ccc(F)cc2)c2nc3ccccc3nc12` [SKLB-4B, 2-amino-1-(4-fluorobenzyl)-1H-pyrrolo[2,3-b]quinoxaline-3-carbonitrile], in assay [2], the “% effect @ 100 µM of SIRT3” value was “significant increase in SIRT3 deacetylation activity” and the activity at 100 µM was 130.6 ± 0.36%. For the same compound, in assay [1], the viability at 10 µM was 70.8 ± 3.03%.
For `N#Cc1c(N)n(Cc2ccc(Br)cc2)c2nc3ccccc3nc12` [SKLB-4C, 2-amino-1-(4-bromobenzyl)-1H-pyrrolo[2,3-b]quinoxaline-3-carbonitrile], the activity at 100 µM in assay [2] came to 126.4 ± 0.81%. The viability at 10 µM in assay [1] stood at 68.25 ± 0.51%.
With `COc1cccc(-n2c(N)c(C#N)c3nc4ccccc4nc32)c1` [SKLB-4D, 2-amino-1-(3-methoxyphenyl)-1H-pyrrolo[2,3-b]quinoxaline-3-carbonitrile], the activity at 100 µM in assay [2] turned out to be 103.1 ± 1.02%. Also, the viability at 10 µM in assay [1] was 64.4 ± 3.28%.
As for `COc1ccc(-n2c(N)c(C#N)c3nc4ccccc4nc32)cc1` [SKLB-4E, 2-amino-1-(4-methoxyphenyl)-1H-pyrrolo[2,3-b]quinoxaline-3-carbonitrile], the activity at 100 µM in assay [2] is 110.4 ± 0.95%. Besides, the viability at 10 µM in assay [1] was 65.9 ± 2.41%.
The corresponding values for `N#Cc1c(N)n(-c2ccccc2F)c2nc3ccccc3nc12` [SKLB-4F, 2-amino-1-(2-fluorophenyl)-1H-pyrrolo[2,3-b]quinoxaline-3-carbonitrile] are 106 ± 1.96% and 65.17 ± 0.38%.
Consider `Nc1c(C(=O)O)c2nc3ccccc3nc2n1Cc1ccc(F)cc1` [SKLB-5A, 2-amino-1-(4-fluorobenzyl)-1H-pyrrolo[2,3-b]quinoxaline-3-carboxylic acid], for which the activity at 100 µM in assay [2] amounted to 154 ± 2.69%. The viability at 10 µM in assay [1] stood at 75.5 ± 2.69%.
Take `CC(C)(C)OC(=O)Nc1c(C(=O)O)c2nc3ccccc3nc2n1Cc1ccc(F)cc1` [SKLB-7A, 2-((tert-butoxycarbonyl)amino)-1-(4-fluorobenzyl)-1H-pyrrolo[2,3-b]quinoxaline-3-carboxylic acid]: in assay [2], the “% effect @ 100 µM of SIRT3” value is “significantly reduced SIRT3 deacetylation activity” and the activity at 100 µM is 109.3 ± 0.71%. Further, the viability at 10 µM in assay [1] turned out to be 66.1 ± 0.8%.
In the case of `CCOC(=O)c1c(N)n(Cc2ccc(F)cc2)c2nc3ccccc3nc12` [SKLB-11B, Ethyl 2-amino-1-(4-fluorobenzyl)-1H-pyrrolo[2,3-b]quinoxaline-3-carboxylate], in assay [2], the “% effect @ 100 µM of SIRT3” value is on record as “maintained or enhanced the activity” and the activity at 100 µM was determined as 167.4 ± 1.13%. For the same compound, the viability at 10 µM in assay [1] was found to be 77 ± 1.96%.
Turning to `CC(C)OC(=O)c1c(N)n(Cc2ccc(F)cc2)c2nc3ccccc3nc12` [SKLB-11C, Isopropyl 2-amino-1-(4-fluorobenzyl)-1H-pyrrolo[2,3-b]quinoxaline-3-carboxylate], in assay [2], the activity at 100 µM was 124.2 ± 0.84%. In addition, the viability at 10 µM in assay [1] is 70.2 ± 1.89%.
As for `CC(C)(C)OC(=O)c1c(N)n(Cc2ccc(F)cc2)c2nc3ccccc3nc12` [SKLB-11D, Tert-butyl 2-amino-1-(4-fluorobenzyl)-1H-pyrrolo[2,3-b]quinoxaline-3-carboxylate], in assay [2], the “% effect @ 100 µM of SIRT3” value is “maintained or enhanced the activity” and the activity at 100 µM turned out to be 148 ± 3.07%. In assay [1], the viability at 10 µM was 74.3 ± 1.7%.
With `Nc1c(C(=O)Oc2ccccc2)c2nc3ccccc3nc2n1Cc1ccc(F)cc1` [SKLB-11E, Phenyl 2-amino-1-(4-fluorobenzyl)-1H-pyrrolo[2,3-b]quinoxaline-3-carboxylate], in assay [2], the activity at 100 µM was found to be 130.6 ± 1.27%. Besides, the viability at 10 µM in assay [1] came out at 71.3 ± 4.34%.
On to `CC(C)(C)OC(=O)c1c(N)n(Cc2ccccc2)c2nc3ccccc3nc12` [SKLB-11F, Tert-butyl 2-amino-1-benzyl-1H-pyrrolo[2,3-b]quinoxaline-3-carboxylate], for which the activity at 100 µM in assay [2] turned out to be 122.7 ± 0.59%. Besides, in assay [1], the viability at 10 µM was determined as 69 ± 1.22%.
Taken in the same sequence, the figures for `Cc1ccc(Cn2c(N)c(C(=O)OC(C)(C)C)c3nc4ccccc4nc32)cc1` [SKLB-11G, Tert-butyl 2-amino-1-(4-methylbenzyl)-1H-pyrrolo[2,3-b]quinoxaline-3-carboxylate] were 107 ± 1.42% and 63.93 ± 0.62%.
Consider `COc1ccc(Cn2c(N)c(C(=O)OC(C)(C)C)c3nc4ccccc4nc32)cc1` [SKLB-11H, Tert-butyl 2-amino-1-(4-methoxybenzyl)-1H-pyrrolo[2,3-b]quinoxaline-3-carboxylate], for which the activity at 100 µM in assay [2] stood at 125.7 ± 0.91%. In assay [1], the viability at 10 µM was determined as 68.7 ± 4.61%.
`NC(=O)c1c(N)n(Cc2ccc(F)cc2)c2nc3ccccc3nc12` [SKLB-11I, 2-amino-1-(4-fluorobenzyl)-1H-pyrrolo[2,3-b]quinoxaline-3-carboxamide]: the activity at 100 µM in assay [2] amounted to 135 ± 2.43%. In assay [1], the viability at 10 µM is 70.8 ± 3.76%.
As for `CNC(=O)c1c(N)n(Cc2ccc(F)cc2)c2nc3ccccc3nc12` [SKLB-11J, 2-amino-1-(4-fluorobenzyl)-N-methyl-1H-pyrrolo[2,3-b]quinoxaline-3-carboxamide], in assay [2], the activity at 100 µM was found to be 150 ± 1.75%. Further, the viability at 10 µM in assay [1] was 72.4 ± 2.21%.
Taken in the same sequence, the figures for `CCNC(=O)c1c(N)n(Cc2ccc(F)cc2)c2nc3ccccc3nc12` [SKLB-11K, 2-amino-N-ethyl-1-(4-fluorobenzyl)-1H-pyrrolo[2,3-b]quinoxaline-3-carboxamide] were 144.3 ± 0.82% and 71.5 ± 2.09%.
In the case of `CCCCNC(=O)c1c(N)n(Cc2ccc(F)cc2)c2nc3ccccc3nc12` [SKLB-11L, 2-amino-N-butyl-1-(4-fluorobenzyl)-1H-pyrrolo[2,3-b]quinoxaline-3-carboxamide], the activity at 100 µM in assay [2] turned out to be 123.6 ± 0.95%. Also, the viability at 10 µM in assay [1] was 67.1 ± 1.6%.
Turning to `Nc1c(C(=O)NC2CC2)c2nc3ccccc3nc2n1Cc1ccc(F)cc1` [SKLB-11M, 2-amino-N-cyclopropyl-1-(4-fluorobenzyl)-1H-pyrrolo[2,3-b]quinoxaline-3-carboxamide], in assay [2], the activity at 100 µM is 104 ± 1.75%. Further, the viability at 10 µM in assay [1] came out at 64.5 ± 0.87%.
As for `CCCCCNC(=O)c1c(N)n(Cc2ccccc2)c2nc3ccccc3nc12` [SKLB-11N, 2-amino-1-benzyl-N-pentyl-1H-pyrrolo[2,3-b]quinoxaline-3-carboxamide], the activity at 100 µM in assay [2] stood at 119 ± 3.3%. For the same compound, the viability at 10 µM in assay [1] came to 66.3 ± 4.52%.
On to `CCCCCNC(=O)c1c(N)n(Cc2ccc(Br)cc2)c2nc3ccccc3nc12` [SKLB-11O, 2-amino-1-(4-bromobenzyl)-N-pentyl-1H-pyrrolo[2,3-b]quinoxaline-3-carboxamide], for which the activity at 100 µM in assay [2] came to 126 ± 1.32%. The viability at 10 µM in assay [1] is 69.2 ± 1.35%.
Consider `CCCCCNC(=O)c1c(N)n(Cc2cccc(Br)c2)c2nc3ccccc3nc12` [SKLB-11P, 2-amino-1-(3-bromobenzyl)-N-pentyl-1H-pyrrolo[2,3-b]quinoxaline-3-carboxamide], for which, in assay [2], the activity at 100 µM is 116.2 ± 0.57%. In addition, the viability at 10 µM in assay [1] was 65.8 ± 4.18%.
Taken in the same sequence, the figures for `CCCCCNC(=O)c1c(N)n(Cc2cccc(Cl)c2)c2nc3ccccc3nc12` [SKLB-11Q, 2-amino-1-(3-chlorobenzyl)-N-pentyl-1H-pyrrolo[2,3-b]quinoxaline-3-carboxamide] were 118 ± 0.63% and 66.5 ± 1.19%.
